Measurements: patent publication US20260092074A1, “Annelated Pyridines as Steroidogenesis Inhibitors, Preparation Method and Use Thereof” (Guangzhou Vinnocent Pharmaceutical Limited, priority 2022, published 2026)

Key:
human CYP11B1 = target: T1, human CYP11B1 (Homo sapiens, UniProt P15538); assay: Inhibition of hCYP11B1 in transfected V79 cells; format: cell-based; conditions: hamster V79 cells expressing human CYP11B1; substrate 11-deoxycortisol 200 nM
T1 construct: expressed in transfected cells
T1 sequence (P15538 25-503): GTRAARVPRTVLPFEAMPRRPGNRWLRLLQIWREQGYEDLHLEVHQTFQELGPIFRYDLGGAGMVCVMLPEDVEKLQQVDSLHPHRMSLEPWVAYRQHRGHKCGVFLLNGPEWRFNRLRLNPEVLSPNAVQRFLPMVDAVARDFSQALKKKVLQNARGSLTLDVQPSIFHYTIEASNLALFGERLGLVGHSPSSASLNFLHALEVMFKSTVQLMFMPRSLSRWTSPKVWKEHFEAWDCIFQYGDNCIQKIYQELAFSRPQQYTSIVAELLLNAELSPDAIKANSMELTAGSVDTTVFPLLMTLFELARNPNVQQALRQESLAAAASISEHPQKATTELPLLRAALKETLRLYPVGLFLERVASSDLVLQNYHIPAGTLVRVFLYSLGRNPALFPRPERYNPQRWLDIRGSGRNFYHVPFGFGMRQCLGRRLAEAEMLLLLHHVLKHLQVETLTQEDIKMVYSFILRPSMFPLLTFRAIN
In short: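 Reactions started with 200 nM 11-deoxycortisol, ran for 30 min and were stopped with ethyl acetate, after a 2 h compound preincubation. The host was stably transfected V79 hamster cells carrying human CYP11B1 plus rat P450 reductase. Percent inhibition, from LC-MS/MS or HPLC (260 nm) quantitation of substrate and product, gave the IC50.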

human CYP11B2 = target: T2, human CYP11B2 (Homo sapiens, UniProt P19099); assay: Inhibition of hCYP11B2 in transfected V79 cells; format: cell-based; conditions: hamster V79 cells expressing human CYP11B2; substrate 11-deoxycorticosterone 200 nM
T2 construct: expressed in transfected cells
T2 sequence (P19099 25-503): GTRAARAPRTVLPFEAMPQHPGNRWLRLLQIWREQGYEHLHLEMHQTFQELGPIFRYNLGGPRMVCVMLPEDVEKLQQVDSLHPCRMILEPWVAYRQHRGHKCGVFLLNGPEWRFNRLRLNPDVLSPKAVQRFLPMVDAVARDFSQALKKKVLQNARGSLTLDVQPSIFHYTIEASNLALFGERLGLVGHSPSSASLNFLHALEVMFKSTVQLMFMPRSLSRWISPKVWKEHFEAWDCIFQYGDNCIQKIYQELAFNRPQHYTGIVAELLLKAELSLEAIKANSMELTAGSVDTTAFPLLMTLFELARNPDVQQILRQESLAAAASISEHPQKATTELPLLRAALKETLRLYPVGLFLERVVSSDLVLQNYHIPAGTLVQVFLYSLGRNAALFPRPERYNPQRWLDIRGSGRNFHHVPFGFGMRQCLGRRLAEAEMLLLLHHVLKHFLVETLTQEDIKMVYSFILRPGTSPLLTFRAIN
In short: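 The substrate (200 nM, 30 min) was added after a 2 hour compound pre-incubation in lentivirus-transduced V79 cells stably expressing human CYP11B2 plus rat NADPH-P450 reductase.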

SMILES | IC50 (human CYP11B1) [nM] | IC50 (human CYP11B2) [nM]
N#Cc1ccc(-c2cncc3c2ccn3S(=O)(=O)c2cccc(F)c2)cc1 [E12, 4-(1-((3-Fluorophenyl)sulfonyl)-1H-pyrrolo[2,3-c]pyridin-4-yl)benzonitrile] | 0.5 | 0.3
COc1ccc(S(=O)(=O)n2ccc3c(-c4ccc(C#N)cc4)cncc32)cc1 [E9, 4-(1-((4-Methoxyphenyl)sulfonyl)-1H-pyrrolo[2,3-c]pyridin-4-yl)benzonitrile] | 0.3 | 0.1
N#Cc1ccc(-c2cncc3c2CCN3C(=O)c2ccccc2[N+](=O)[O-])cc1 [C35, 4-(1-(2-Nitrobenzoyl)-2,3-dihydro-1H-pyrrolo[2,3-c]pyridin-4-yl)benzonitrile] | 459 | 31
COc1ccc(S(=O)(=O)N2CCc3c(-c4ccc(C#N)cc4)cncc32)cc1 [C3, 4-(1-((4-Methoxyphenyl)sulfonyl)-2,3-dihydro-1H-pyrrolo[2,3-c]pyridin-4-yl)benzonitrile] | 0.2 | 0.16
N#Cc1ccc(-c2cncc3c2ccn3C(=O)c2ccc(F)cc2)cc1 [E30, 4-(1-(4-Fluorobenzoyl)-1H-pyrrolo[2,3-c]pyridin-4-yl)benzonitrile] | 11 | 0.1
O=C(c1ccc(F)cc1)n1ccc2c(-c3cc4ccccc4s3)cncc21 [E31, (4-(Benzo[b]thiophen-2-yl)-1H-pyrrolo[2,3-c]pyridin-1-yl)(4-fluorophenyl)methanone] | 635 | 10

Further lines, results first:

IC50 (human CYP11B1) [nM] | IC50 (human CYP11B2) [nM] | SMILES
240 | 5.7 | N#Cc1ccc(-c2cncc3c2OCCN3C(=O)Cc2cccc(C(F)(F)F)c2)cc1 [O46, 4-(4-(2-(3-(Trifluoromethyl)phenyl)acetyl)-3,4-dihydro-2H-pyrido[4,3-b][1,4]oxazin-8-yl)benzonitrile]
216 | 23.2 | N#Cc1ccc(C(=O)N2CC(S(=O)(=O)N3CCOc4c(-c5ccc(C#N)cc5)cncc43)C2)cc1 [O111, 4-(4-((1-(4-Cyanobenzoyl)azetidin-3-yl)sulfonyl)-3,4-dihydro-2H-pyrido[4,3-b][1,4]oxazin-8-yl)benzonitrile]
2.9 | 0.7 | COc1ccc(S(=O)(=O)N2CCSc3c(-c4cccc(C#N)c4)cncc32)cc1 [S27, 3-(4-((4-Methoxyphenyl)sulfonyl)-3,4-dihydro-2H-pyrido[4,3-b][1,4]thiazin-8-yl)benzonitrile]
4220 | 55 | N#CC12CC(c3cncc4c3OCCN4C(=O)C3CN(Cc4cccc(F)c4)C3)(C1)C2 [O133, 3-(4-(1-(3-Fluorobenzyl)azetidine-3-carbonyl)-3,4-dihydro-2H-pyrido[4,3-b][1,4]oxazin-8-yl)bicyclo[1.1.1]pentane-1-carbonitrile]
376 | 4.8 | N#Cc1ccc2oc(-c3cncc4c3OCCN4)cc2c1 [O109, 2-(3,4-Dihydro-2H-pyrido[4,3-b][1,4]oxazin-8-yl)benzofuran-5-carbonitrile]
125 | 4.7 | Cc1cccc(CC(=O)N2CCOc3c(-c4ccc(C#N)cc4)cncc32)c1 [O43, 4-(4-(2-(m-Tolyl)acetyl)-3,4-dihydro-2H-pyrido[4,3-b][1,4]oxazin-8-yl)benzonitrile]
614 | 15.1 | N#Cc1ccc(-c2cncc3c2OCCN3C(=O)Cc2ccc(C(F)(F)F)cc2)cc1 [O45, 4-(4-(2-(4-(Trifluoromethyl)phenyl)acetyl)-3,4-dihydro-2H-pyrido[4,3-b][1,4]oxazin-8-yl)benzonitrile]
4390 | 88 | N#Cc1ccc(-c2cncc3c2SCCN3C(=O)c2cccnc2)cc1 [S7, 4-(4-Nicotinoyl-3,4-dihydro-2H-pyrido[4,3-b][1,4]thiazin-8-yl)benzonitrile]
